Source: patent US10231453B2, “5-substituted imidazole derivatives” (BAYER CROPSCIENCE AKTIENGESELLSCHAFT, priority 2015, dated 2019)
Marks after values point to notes of the source that are not given here.

Tests used:
[1] = system: Septoria tritici; experiment: In vivo preventive test on Septoria tritici (leaf spot on wheat), Examples E, Q3 and R5; details: Zymoseptoria tritici, 576 h, 500 ppm of active ingredient; wheat, preventive spray, evaluated 24 days after inoculation; read-out: efficacy
[2] = system: Sphaerotheca fuliginea; experiment: In vivo preventive test on Sphaerotheca fuliginea (powdery mildew on cucurbits), Examples F and R6; details: Podosphaera fuliginea, 360 h; 500 ppm of active ingredient; gherkin, preventive spray, evaluated 15 days after inoculation; read-out: efficacy
[3] = system: Uromyces appendiculatus; experiment: In vivo preventive test on Uromyces appendiculatus (bean rust), Examples G and R7; details: 264 h, 500 ppm of active ingredient, bean, preventive spray, evaluated 11 days after inoculation, read-out: efficacy
[4] = Measurement of LogP values by HPLC on reversed phase columns (EEC directive 79/831 Annex V.A8); type: physicochemical; details: for chromatographic logP: method [a]: LC-UV, acidic range, 0.1% formic acid in water and acetonitrile as eluent
Procedure: Measurement of Log P values was performed as outlined above.

[5] = system: Puccinia recondita; experiment: In vivo preventive test on Puccinia recondita (brown rust on wheat), Examples C and R3; details: Puccinia recondita, 264 h; 500 ppm of active ingredient; wheat, preventive spray, evaluated 11 days after inoculation; read-out: efficacy
[6] = system: Pyrenophora teres; experiment: In vivo preventive test on Pyrenophora teres (net blotch on barley), Examples D, Q2 and R4; details: Pyrenophora teres, 336 h, read-out: Efficacy in %; for pest or weed control at 100 ppm: Example R4, rate of application 100 ppm; for pest or weed control at 500 ppm: Example R4, rate of application 500 ppm
[7] = Table 2, compounds of formula (XVII)

Row | SMILES | pest or weed control at 500 ppm [1] [%] | pest or weed control at 500 ppm [2] [%] | pest or weed control at 500 ppm [3] [%] | chromatographic logP ([4]; Table 1) | pest or weed control at 500 ppm [5] [%] | further results
1 | N#Cc1cncn1CC(O)(Cc1cc(Cl)cc(Cl)c1)C1(Cl)CC1 (stereo not shown) [Example I-58] | 80 to 89 | 90 to 100 | 90 to 100 | 3.55 | 80 to 89 | –
2 | O=C(Cc1ccccc1)c1cncn1CC(O)(Cc1ccccc1)C1(Cl)CC1 (stereo not shown) [Example I-169] | 70 to 79 | 90 to 100 | 70 to 79 | 3.56 | 70 to 79 | –
3 | N#Cc1cncn1CC(O)(Cc1ccccc1F)CC1CC1 (stereo not shown) [Example I-141] | 90 to 100 | 90 to 100 | 90 to 100 | 2.45 | 90 to 100 | –
4 | CCOC(Cc1ccc(Cl)cc1F)(Cn1cncc1Cl)C1(Cl)CC1 (stereo not shown) [Example I-122] | 90 to 100 | 90 to 100 | 90 to 100 | 3.1 | 80 to 89 | –
5 | NC(=O)c1cncn1CC(O)(Cc1ccc(Cl)cc1F)C1CC1 (stereo not shown) [Example I-116] | 90 to 100 | 90 to 100 | – | 1.49 | – | –
6 | N#Cc1cncn1CC(O)(C(F)c1ccccc1Cl)C1(Cl)CC1 (stereo not shown) [Example I-24] | 90 to 100 | 90 to 100 | 90 to 100 | 2.82 | 80 to 89 | –
7 | CC(C)C(O)(Cc1ccc(F)c(F)c1F)Cn1cncc1C#N (stereo not shown) [Example I-105] | 70 to 79 | 90 to 100 | – | 2.78 | 70 to 79 | –
8 | C#Cc1cn(CC(O)(Cc2ccccc2F)C2(Cl)CC2)cn1 (stereo not shown) [drawing 110, reference compound] | – | – | – | – | – | pest or weed control at 100 ppm [6]: 0%; pest or weed control at 500 ppm [6]: 0%
9 | Nc1cncn1CC(O)(Cc1ccccc1Cl)C1(Cl)CC1 (stereo not shown) [Example I-78] | 80 to 89 | 80 to 89 | – | 1.5 | – | –
10 | Cc1cncn1CC(O)(Cc1cccnc1Cl)C1(Cl)CC1 (stereo not shown) [Example I-10] | – | – | 90 to 100 | 1.22 | 80 to 89 | –
11 | N#Cc1cncn1CC(O)(Cc1cc(Br)ncc1Br)C1(Cl)CC1 (stereo not shown) [Example I-47] | – | 90 to 100 | 90 to 100 | 2.73 | 80 to 89 | –
12 | OC(Cc1ccccc1F)(Cn1ccnc1Cl)C1(Cl)CC1 (stereo not shown) [drawing 113, reference compound] | – | – | – | – | – | pest or weed control at 100 ppm [6]: 0%; pest or weed control at 500 ppm [6]: 0%
13 | N#Cc1cn(CC(O)(Cc2ccccc2F)C2(Cl)CC2)cn1 (stereo not shown) [drawing 121, reference compound] | – | – | – | – | – | pest or weed control at 100 ppm [6]: 0%; pest or weed control at 500 ppm [6]: 0%
14 | OC(Cc1cc(Cl)nc(Cl)c1)(Cn1cncc1Cl)C1(Cl)CC1 (stereo not shown) [Example I-74] | 90 to 100 | 90 to 100 | 90 to 100 | 2.23 | – | –
15 | OC(Cc1ccnc(Cl)c1Cl)(Cn1cncc1Cl)C1(Cl)CC1 (stereo not shown) [Example I-67] | – | 90 to 100 | 90 to 100 | 2.08 | 80 to 89 | –
16 | OC(Cc1ccccc1F)(Cn1cncc1C1CC1)C1(Cl)CC1 (stereo not shown) [Example I-37] | 90 to 100 | – | – | 1.86 | 80 to 89 | –
17 | COc1cncn1CC(O)(Cc1ccccc1F)C1(Cl)CC1 (stereo not shown) [Example I-35] | 90 to 100 | – | – | 1.67 | – | –
18 | N#Cc1cn(CC(O)(Cc2ccccc2Cl)C2(Cl)CC2)cn1 (stereo not shown) [drawing 108, reference compound] | – | – | – | – | – | pest or weed control at 100 ppm [6]: 0%; pest or weed control at 500 ppm [6]: 0%
19 | CC(C)(C)C(=O)Cn1cncc1C#N [XVII-7] | – | – | – | – | – | chromatographic logP [4, 7]: 1.47
20 | N#Cc1cncn1CC(=O)C1(F)CCCC1 [XVII-16] | – | – | – | – | – | chromatographic logP [4, 7]: 1.81
21 | O=C(Cn1cncc1F)C1(Cl)CC1 [XVII-5] | – | – | – | – | – | chromatographic logP [4, 7]: 0.32

Row | SMILES | pest or weed control at 500 ppm [1] [%] | pest or weed control at 500 ppm [2] [%] | pest or weed control at 500 ppm [3] [%] | chromatographic logP ([4]; Table 1) | pest or weed control at 500 ppm [5] [%] | further results
22 | N#Cc1cncn1CC(O)(Cc1ccc(F)c(F)c1F)C1CCC1 (stereo not shown) [Example I-104] | 90 to 100 | 90 to 100 | 90 to 100 | 2.78 | 90 to 100 | –
23 | N#Cc1cncn1CC(=O)C1CCC1 [XVII-17] | – | – | – | – | – | chromatographic logP [4, 7]: 1.26
24 | C=CCOC(Cc1ccc(Cl)cc1F)(Cn1cncc1Cl)C1(Cl)CC1 (stereo not shown) [Example I-123] | 90 to 100 | 90 to 100 | 80 to 89 | 3.31 | 80 to 89 | –
25 | N#Cc1cncn1CC(=O)C1(Cl)CC1 [XVII-2, 1-[2-(1-chlorocyclopropyl)-2-oxoethyl]-1H-imidazole-5-carbonitrile] | – | – | – | – | – | chromatographic logP [4, 7]: 1.35
26 | OC(Cn1cncc1Cl)(C(F)c1ccccc1F)C1(Cl)CC1 (stereo not shown) [Example I-28] | 80 to 89 | 90 to 100 | 70 to 79 | 2.01 | 80 to 89 | –
27 | N#Cc1cncn1CC(O)(Cc1ccncc1Br)C1(Cl)CC1 (racemic) [Example I-46] | – | – | – | – | – | LogP [4]: 1.94^[a]
28 | OC(Cc1ccccc1Cl)(Cn1cnc(Br)c1)C1(Cl)CC1 (stereo not shown) [drawing 106, reference compound] | – | – | – | – | – | pest or weed control at 100 ppm [6]: 0%; pest or weed control at 500 ppm [6]: 0%
29 | CCOC(=O)c1cncn1CC(O)(Cc1ccccc1F)C1(Cl)CC1 (stereo not shown) [Example I-135] | – | – | – | 2.73 | – | –
30 | N#Cc1cncn1CC(O)(Cc1ccc(Cl)cc1F)C1CCC1 (stereo not shown) [Example I-117] | 90 to 100 | 90 to 100 | 90 to 100 | 3.31 | 90 to 100 | –
31 | N#Cc1cncn1CC(O)(Cc1ccncc1Cl)C1(Cl)CC1 (stereo not shown) [Example I-57] | 90 to 100 | 90 to 100 | 90 to 100 | 1.88 | 90 to 100 | –
32 | N#Cc1cncn1CC(=O)C1(Cl)CCC1 [XVII-18] | – | – | – | – | – | chromatographic logP [4, 7]: 1.86
33 | N#Cc1cncn1CC(=O)C1CCCC1 [XVII-15] | – | – | – | – | – | chromatographic logP [4, 7]: 1.57
34 | N#Cc1cncn1CC(O)(Cc1ccc(F)cc1)C1CCC1 (stereo not shown) [Example I-160] | – | – | – | 2.56 | – | –
35 | N#Cc1cncn1CC(O)(Cc1ccc(F)c(F)c1F)CC1CC1 (stereo not shown) [Example I-106] | 90 to 100 | 90 to 100 | 90 to 100 | 2.73 | 80 to 89 | –
36 | OC(Cc1ccccc1F)(Cn1cnc(Cl)c1)C1(Cl)CC1 (stereo not shown) [drawing 112, reference compound] | – | – | – | – | – | pest or weed control at 100 ppm [6]: 0%; pest or weed control at 500 ppm [6]: 0%
37 | Cc1ccc(CC(O)(Cn2cncc2Cl)C2(Cl)CC2)c(C)c1 (stereo not shown) [Example I-68] | – | – | 90 to 100 | 2.69 | 70 to 79 | –
38 | N#Cc1cncn1CC(O)(Cc1ccc(F)cc1)C1(F)CC1 (stereo not shown) [Example I-100] | – | – | – | 2.35 | – | –
39 | N#Cc1cncn1CC(O)(Cc1ccc(F)cc1)C1CCCC1 (stereo not shown) [Example I-161] | – | – | – | 2.82 | – | –
40 | N#Cc1cncn1CC(=O)C1(F)CC1 [XVII-4] | – | – | – | – | – | chromatographic logP [4, 7]: 1.05
41 | N#Cc1cncn1CC(O)(Cc1ccc(Oc2ccc(Cl)cc2)cc1Cl)C1(Cl)CC1 (racemic) [Example I-53] | – | – | – | – | – | LogP [4]: 4.54^[a]
42 | CC(C)C(=O)Cn1cncc1C#N [XVII-14] | – | – | – | – | – | chromatographic logP [4, 7]: 1.14
